Data set [1] relates to DENV (serotype 2). Put plainly: microbe, parasite or virus in culture. The following applies: for EC50: read-out: Dengue EC50. In kind it is cell-based, Dengue virus serotype 2.
The test system of data set [2] is YFV. Put plainly: microbe, parasite or virus in culture. In kind it is cell-based, yellow fever virus. The following applies: for EC50: read-out: Yellow fever EC50.
The nature of data set [3]: in vitro. The settings on record: chlorocebus aethiops.
Data set [4] in a line: in vitro. The following applies: chlorocebus aethiops. The source holds these as a separate data set.
Data set [5] deals with Vero-B cells (ECACC).
Data set [6] has as its system Vero-B cells (ATCCCCL-81).

Where two headings read alike, the source gives them in different places.

The EC50 is the concentration giving half of the maximal effect. Take `Cc1cc(-c2ccccc2NC(=O)c2ccccc2C(=O)Nc2ccc(F)cc2)[nH]n1` [7m, N^1-(4-fluorophenyl)-N^2-(2-(3-methyl-1H-pyrazol-5-yl)phenyl)phthalamide]: in data set [1], the “Dengue SI” value is 1. Moreover, the EC50 in data set [1] (Dengue virus, Vero B) is above 120 µM; in data set [2] (Yellow fever virus, Vero B) it was 12 µM. The “Yellow fever SI” value in data set [2] was above 10. In addition, the CC50 in data set [3] and in data set [4] (Yellow fever CC50) was above 120 µM throughout.

Turning to `Cc1ccc(NC(=O)c2ccccc2C(=O)Nc2ccccc2-c2cc(C)n[nH]2)cc1` [7n, N^1-(2-(3-methyl-1H-pyrazol-5-yl)phenyl)-N^2-(p-tolyl)phthalamide], the “Dengue SI” value in data set [1] is recorded as above 9. The EC50 in data set [1] (Dengue virus, Vero B) amounted to 14.1 µM; in data set [2] (Yellow fever virus, Vero B) it was 5.8 µM. Further, the “Yellow fever SI” value in data set [2] is on record as above 21. Moreover, the CC50 in data set [3] and in data set [4] (Yellow fever CC50) was above 122 µM each time.

Take `Cc1ccc(NC(=O)c2ccccc2NC(=O)c2ccc(F)cc2)c(-c2ccsc2)c1` [13a, 2-(4-fluorobenzamido)-N-(4-methyl-2-(thiophen-3-yl)phenyl)benzamide]: the concentration giving a half-maximal response (EC50) is above 116 µM in data set [1] (Dengue virus, Vero B) and above 116 µM in data set [2] (Yellow fever virus, Vero B). For the same compound, the CC50 in data set [3] and in data set [4] (Yellow fever CC50) was above 116 µM each time.

On to `Cc1ccc(NC(=O)c2ccccc2NC(=O)c2ccc(F)cc2)c(-c2ccc(C)s2)c1` [13b, 2-(4-fluorobenzamido)-N-(4-methyl-2-(5-methylthiophen-2-yl)phenyl)benzamide], for which the “Dengue SI” value in data set [1] is listed as above 35. The EC50 was 3.2 µM in data set [1] (Dengue virus, Vero B) and above 113 µM in data set [2] (Yellow fever virus, Vero B). In addition, in data set [2], the “Yellow fever SI” value was 1. For the same compound, the CC50 in data set [3] is above 113 µM; in data set [4] (Yellow fever CC50), above 113 µM; in data set [4] (Yellow fever CC50 (visual)) it was 12.5 µM.

As to `Cc1ccc(NC(=O)c2ccccc2NC(=O)c2ccc(F)cc2)c(-c2ccncc2)c1` [13c, 2-(4-fluorobenzamido)-N-(4-methyl-2-(pyridin-4-yl)phenyl)benzamide], the “Dengue SI” value in data set [1] is listed as above 7. In addition, the EC50 in data set [1] (Dengue virus, Vero B) was 17 µM; in data set [2] (Yellow fever virus, Vero B), above 117 µM. For the same compound, the “Yellow fever SI” value in data set [2] came to 1. Further, the figures for the CC50 in data set [3], in data set [4] (Yellow fever CC50) and in data set [4] (Yellow fever CC50 (visual)) were above 117 µM, above 50 µM and 30 µM, respectively.

On to `Cc1ccc(NC(=O)c2ccccc2NC(=O)c2ccc(F)cc2)c(-c2cccnc2)c1` [13d, 2-(4-fluorobenzamido)-N-(4-methyl-2-(pyridin-3-yl)phenyl)benzamide], for which, in data set [1], the “Dengue SI” value is above 5. In addition, the EC50 in data set [1] (Dengue virus, Vero B) is 23 µM; in data set [2] (Yellow fever virus, Vero B), above 117 µM. In data set [2], the “Yellow fever SI” value came to 1. The CC50 was above 117 µM in data set [3], above 50 µM in data set [4] (Yellow fever CC50) and 39 µM in data set [4] (Yellow fever CC50 (visual)).

In the case of “N^1-(4-fluorophenyl)-N^2-(2-(thiophen-3-yl)benzyl)phthalamide [7i]”, in data set [1], the “Dengue SI” value stood at 17 and the EC50 is 3 µM. In data set [2], the “Yellow fever SI” value came out at 53 and the EC50 is 1.4 µM. Also, in data set [5], the CC50 came to 50 µM. In data set [6], this compound registered a CC50 of 75 µM.

The values above are taken from publication PMC4999056 (European Journal of Medicinal Chemistry, 2016).
